Measurements reported in patent publication US10894784B2, “Heteroarylbenzimidazole compounds” (BAYER PHARMA AKTIENGESELLSCHAFT, priority 2015, dated 2021).
“And” between values parts separate entries of the source, which are not always exact repeats. Identical values can stand only once.

Target: TBK1 (Homo sapiens (Human), UniProt Q9UHD2)
Assay: TBK1 low ATP kinase assay (in vitro assay 1)
Type: biochemical
Conditions: in vitro assay 1, read-out: TBK1 low ATP kinase assay IC50

TBK1, sequence (Q9UHD2 whole entry): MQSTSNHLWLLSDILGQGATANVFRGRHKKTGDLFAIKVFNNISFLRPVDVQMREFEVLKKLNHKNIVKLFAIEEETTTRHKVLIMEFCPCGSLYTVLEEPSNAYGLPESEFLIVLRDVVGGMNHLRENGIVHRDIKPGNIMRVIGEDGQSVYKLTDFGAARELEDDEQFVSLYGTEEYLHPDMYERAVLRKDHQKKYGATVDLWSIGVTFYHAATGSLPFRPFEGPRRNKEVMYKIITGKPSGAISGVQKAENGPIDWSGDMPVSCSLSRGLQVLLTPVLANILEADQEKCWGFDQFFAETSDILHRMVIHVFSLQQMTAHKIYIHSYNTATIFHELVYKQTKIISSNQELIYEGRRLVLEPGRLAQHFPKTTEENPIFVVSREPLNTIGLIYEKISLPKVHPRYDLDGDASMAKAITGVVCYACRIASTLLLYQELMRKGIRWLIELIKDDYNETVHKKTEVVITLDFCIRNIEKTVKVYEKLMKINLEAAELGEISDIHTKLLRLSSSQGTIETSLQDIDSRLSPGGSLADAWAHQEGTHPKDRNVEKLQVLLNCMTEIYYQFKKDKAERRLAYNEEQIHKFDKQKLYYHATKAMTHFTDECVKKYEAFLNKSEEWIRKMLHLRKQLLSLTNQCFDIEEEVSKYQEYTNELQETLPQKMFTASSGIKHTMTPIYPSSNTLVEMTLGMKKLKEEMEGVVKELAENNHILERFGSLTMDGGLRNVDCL

| IC50 | SMILES |
| --- | --- |
| 0.0142 µM | CC(c1ccnc(Nc2nc3ccc(-c4cnn(CC5CCC5)c4)cc3[nH]2)c1)N1CCN(C(=O)OC(C)(C)C)CC1 (single isomer, unassigned) [Example 59.01.01, tert-butyl 4-{(1R or 1S)-1-[2-({6-[1-(cyclobutylmethyl)-1H-pyrazol-4-yl]-1H-benzimidazol-2-yl}amino)pyridin-4-yl]ethyl}piperazine-1-carboxylate] |
| 11 µM | CC(c1ccnc(Nc2nc3cc(-c4cc(C(F)(F)F)nn4C)ccc3[nH]2)c1)N1CCN(C(=O)OC(C)(C)C)CC1 (single isomer, unassigned) [Example 88.01, tert-butyl 4-{(1R or 1S)-1-[2-({6-[1-methyl-3-(trifluoromethyl)-1H-pyrazol-5-yl]-1H-benzimidazol-2-yl}amino)pyridin-4-yl]ethyl}piperazine-1-carboxylate] |
| 2.12 µM | Cc1ncc(C)c(-c2ccc3nc(Nc4cc(CN5CCN(C(=O)C6CCC6)CC5)ccn4)[nH]c3c2)n1 [Example 33.04, cyclobutyl{4-[(2-{[6-(2,5-dimethylpyrimidin-4-yl)-1H-benzimidazol-2-yl]amino}pyridin-4-yl)methyl]piperazin-1-yl}methanone] |
| 0.015 µM | CNc1cc(-c2ccc3nc(Nc4cc(CN5CCN(C(=O)OC(C)(C)C)CC5)ccn4)[nH]c3c2)ncn1 [Example 150.01, tert-butyl 4-{[2-({6-[6-(methylamino)pyrimidin-4-yl]-1H-benzimidazol-2-yl}amino)pyridin-4-yl]methyl}piperazine-1-carboxylate] |
| 0.013 µM | CC(C)(C)OC(=O)N1CCN(Cc2ccnc(Nc3nc4ccc(-c5ccnc(F)c5)cc4[nH]3)c2)CC1 [Example 137.01, tert-butyl 4-[(2-{[6-(2-fluoropyridin-4-yl)-1H-benzimidazol-2-yl]amino}pyridin-4-yl)methyl]piperazine-1-carboxylate] |
| 0.224 µM | COc1cnc(C)cc1-c1ccc2nc(Nc3cc(CN4CCN(C(=O)C5CC5)CC4)ccn3)[nH]c2c1 [Example 07.01, cyclopropyl{4-[(2-{[6-(5-methoxy-2-methylpyridin-4-yl)-1H-benzimidazol-2-yl]amino}pyridin-4-yl)methyl]piperazin-1-yl}methanone] |
| 0.0591 µM | COc1cncnc1-c1ccc2nc(Nc3cc(CN4CCN(C(=O)N(C)C)CC4)ccn3)[nH]c2c1 [Example 35.01.03, 4-[(2-{[6-(5-methoxypyrimidin-4-yl)-1H-benzimidazol-2-yl]amino}pyridin-4-yl)methyl]-N,N-dimethylpiperazine-1-carboxamide] |
| 0.0045 µM | O=C(CC(F)(F)F)N1CCN(Cc2ccnc(Nc3nc4ccc(-c5cc(OCC6CC6)ncn5)cc4[nH]3)c2)CC1 [Example 80.02, 1-(4-{[2-({6-[6-(cyclopropylmethoxy)pyrimidin-4-yl]-1H-benzimidazol-2-yl}amino)pyridin-4-yl]methyl}piperazin-1-yl)-3,3,3-trifluoropropan-1-one] |
| 0.00106 µM | CC(c1ccnc(Nc2nc3ccc(-c4cnn(CC5CC5(F)F)c4)cc3[nH]2)c1)N1CCN(C(=O)CC(F)(F)F)CC1 (single isomer, unassigned) [Example 55.02, 1-{4-[(1R or 1S)-1-(2-{[6-(1-{[(1RS)-2,2-difluorocyclopropyl]methyl}-1H-pyrazol-4-yl)-1H-benzimidazol-2-yl]amino}pyridin-4-yl)ethyl]piperazin-1-yl}-3,3,3-trifluoropropan-1-one] |
| 0.0745 µM | O=C(CC(F)(F)F)N1CCN(Cc2ccnc(Nc3nc4ccc(-c5ccnc(N6CCCC6)n5)cc4[nH]3)c2)CC1 [Example 177.02, 3,3,3-trifluoro-1-(4-{[2-({6-[2-(pyrrolidin-1-yl)pyrimidin-4-yl]-1H-benzimidazol-2-yl}amino)pyridin-4-yl]methyl}piperazin-1-yl)propan-1-one] |
| 0.00823 µM | CC(c1ccnc(Nc2nc3ccc(-c4ccncn4)cc3[nH]2)c1)N1CCN(C(=O)CC(F)(F)F)CC1 (single isomer, unassigned) [Example 23.05.02.A, 3,3,3-trifluoro-1-{4-[(1R or 1S)-1-(2-{[6-(pyrimidin-4-yl)-1H-benzimidazol-2-yl]amino}pyridin-4-yl)ethyl]piperazin-1-yl}propan-1-one] |
| > 20 µM and 10 µM and 8.12 µM | Cc1cccc(-c2ccc3nc(Nc4cc(CN5CCN(C(=O)OC(C)(C)C)CC5)ccn4)[nH]c3c2)n1 [Example 12.01, tert-butyl 4-[(2-{[6-(6-methylpyridin-2-yl)-1H-benzimidazol-2-yl]amino}pyridin-4-yl)methyl]piperazine-1-carboxylate] |
| 0.019 µM | CN(CC1CC1)c1cc(-c2ccc3nc(Nc4cc(CN5CCN(C(=O)CC(F)(F)F)CC5)ccn4)[nH]c3c2)ncn1 [Example 141.02, 1-[4-({2-[(6-{6-[(cyclopropylmethyl)(methyl)amino]pyrimidin-4-yl}-1H-benzimidazol-2-yl)amino]pyridin-4-yl}methyl)piperazin-1-yl]-3,3,3-trifluoropropan-1-one] |
| 0.00338 µM | O=C(CC(F)(F)F)N1CCN(Cc2ccnc(Nc3nc4ccc(-c5ccnc(OCC6CC6)n5)cc4[nH]3)c2)CC1 [Example 62.01.03, 1-(4-{[2-({6-[2-(cyclopropylmethoxy)pyrimidin-4-yl]-1H-benzimidazol-2-yl}amino)pyridin-4-yl]methyl}piperazin-1-yl)-3,3,3-trifluoropropan-1-one] |
| 0.353 µM | O=C(CC(F)(F)F)N1CCN(Cc2ccnc(Nc3nc4ccc(-c5ccsc5Cl)cc4[nH]3)c2)CC1 [Example 175.02, 1-{4-[(2-{[6-(2-chlorothiophen-3-yl)-1H-benzimidazol-2-yl]amino}pyridin-4-yl)methyl]piperazin-1-yl}-3,3,3-trifluoropropan-1-one] |
| 0.00981 µM | O=C(CC(F)(F)F)N1CCN(Cc2ccnc(Nc3nc4ccc(-c5cnn(CC(F)(F)F)c5)cc4[nH]3)c2)CC1 [Example 58.01.02, 3,3,3-trifluoro-1-(4-{[2-({6-[1-(2,2,2-trifluoroethyl)-1H-pyrazol-4-yl]-1H-benzimidazol-2-yl}amino)pyridin-4-yl]methyl}piperazin-1-yl)propan-1-one] |
| 0.0209 µM | Cc1cc(-c2ccc3nc(Nc4cc(C(C)N5CCN(C(=O)C6(C(F)(F)F)CC6)CC5)ccn4)[nH]c3c2F)ncn1 (single isomer, unassigned) [Example 172.04, {4-[(1R or 1S)-1-(2-{[7-fluoro-6-(6-methylpyrimidin-4-yl)-1H-benzimidazol-2-yl]amino}pyridin-4-yl)ethyl]piperazin-1-yl}[1-(trifluoromethyl)cyclopropyl]methanone] |
| 0.002 µM | CC(c1ccnc(Nc2nc3ccc(-c4cc(N5CCCC5)ncn4)cc3[nH]2)c1)N1CCN(C(=O)OC(C)(C)C)CC1 (single isomer, unassigned) [Example 117.01, tert-butyl 4-{(1R or 1S)-1-[2-({6-[6-(pyrrolidin-1-yl)pyrimidin-4-yl]-1H-benzimidazol-2-yl}amino)pyridin-4-yl]ethyl}piperazine-1-carboxylate] |
| 0.0337 µM | O=C(CC(F)(F)F)N1CCN(Cc2ccnc(Nc3nc4ccc(-c5ncnc(NCC6CC6)c5F)cc4[nH]3)c2)CC1 [Example 195.02, 1-[4-({2-[(6-{6-[(cyclopropylmethyl)amino]-5-fluoropyrimidin-4-yl}1H-benzimidazol-2-yl)amino]pyridin-4-yl}methyl)piperazin-1-yl]-3,3,3-trifluoropropan-1-one] |
| 0.0089 µM | COc1c(NC2CC2)ncnc1-c1ccc2nc(Nc3cc(CN4CCN(C(=O)C5CC5)CC4)ccn3)[nH]c2c1 [Example 108.03, cyclopropyl(4-{[2-({6-[6-(cyclopropylamino)-5-methoxypyrimidin-4-yl]-1H-benzimidazol-2-yl}amino)pyridin-4-yl]methyl}piperazin-1-yl)methanone] |
| 0.268 µM | Cc1noc(-c2ccc3nc(Nc4cc(CN5C[C@@H](C)N(C(=O)C6CC6)C[C@@H]5C)ccn4)[nH]c3c2)n1 [Example 16.02.04, cyclopropyl{(2R,5S)-2,5-dimethyl-4-[(2-{[6-(3-methyl-1,2,4-oxadiazol-5-yl)-1H-benzimidazol-2-yl]amino}pyridin-4-yl)methyl]piperazin-1-yl}methanone] |
| 0.99 µM | CC(=O)N1CCN(Cc2ccnc(Nc3nc4ccc(-c5nc(C)no5)cc4[nH]3)c2)CC1 [Example 101.06, 1-{4-[(2-{[6-(3-methyl-1,2,4-oxadiazol-5-yl)-1H-benzimidazol-2-yl]amino}pyridin-4-yl)methyl]piperazin-1-yl}ethanone] |
| 0.0479 µM | COc1cncnc1-c1ccc2nc(Nc3cc(CN4CCN(C(=O)N5CCCCC5)CC4)ccn3)[nH]c2c1 [Example 35.01.06, {4-[(2-{[6-(5-methoxypyrimidin-4-yl)-1H-benzimidazol-2-yl]amino}pyridin-4-yl)methyl]piperazin-1-yl}(piperidin-1-yl)methanone] |
| 0.019 µM | COc1cc(-c2ccc3nc(Nc4cc(CN5CCN(C(=O)CC(F)(F)F)CC5)ccn4)[nH]c3c2)ncn1 [Example 163.02, 3,3,3-trifluoro-1-{4-[(2-{[6-(6-methoxypyrimidin-4-yl)-1H-benzimidazol-2-yl]amino}pyridin-4-yl)methyl]piperazin-1-yl}propan-1-one] |
| 1.5 µM | Cc1ncc(C)c(-c2ccc3nc(Nc4cc(CN5CCN(C(=O)C6CC6)CC5)ccn4)[nH]c3c2)n1 [Example 33.03, cyclopropyl{4-[(2-{[6-(2,5-dimethylpyrimidin-4-yl)-1H-benzimidazol-2-yl]amino}pyridin-4-yl)methyl]piperazin-1-yl}methanone] |
| 0.0015 µM | CC(c1ccnc(Nc2nc3ccc(-c4cnn(CC5CC5(F)F)c4)c(F)c3[nH]2)c1)N1CCN(C(=O)C2CC2)CC1 (single isomer, unassigned) [Example 86.03, cyclopropyl{4-[(1R or 1S)-1-(2-{[6-(1-{[(1RS)-2,2-difluorocyclopropyl]methyl}-1H-pyrazol-4-yl)-7-fluoro-1H-benzimidazol-2-yl]amino}pyridin-4-yl)ethyl]piperazin-1-yl}methanone] |
| 0.25 µM | CC(c1ccnc(Nc2nc3ccc(-c4ccnn4C(C)C)cc3[nH]2)c1)N1CCN(C(=O)CC(F)(F)F)CC1 (single isomer, unassigned) [Example 72.02, 3,3,3-trifluoro-1-(4-{(1R or 1S)-1-[2-({6-[1-(propan-2-yl)-1H-pyrazol-5-yl]-1H-benzimidazol-2-yl}amino)pyridin-4-yl]ethyl}piperazin-1-yl)propan-1-one] |
